Experimental data from US5244897A, “Glycyl-p-amino-pyridine for the treatment of senile dementia states” (priority 1989, dated 1993).

How the values were obtained:
[1] = acute convulsant activity after oral administration (Litchfield and Wilcoxon); format: in vivo; details: Swiss male mice; for TD50: mouse, in vivo, read-out: CD50 (Convulsant Doses 50)
[2] = acute toxicity after oral administration (Litchfield and Wilcoxon); format: in vivo; details: Swiss mice; for LD50: mouse, in vivo
[3] = mean blood pressure (reported with the transcallosal evoked potential study); format: in vivo, rats; details: for mean blood pressure: MR-3066 2 mg/kg i.v., physostigmine 0.1 mg/kg i.v.
Experimental: (§1) Electric stimulus was given to the callosum of urethane anesthetized rats, and transcallosal evoked potential from the opposite side cerebral cortex was measured.
(§2) The effects of the compounds on the transcallosal evoked potential were studied in rats.

[4] = test system: acetylcholine release from the rat's cerebral cortex; assay: acetylcholine release in vivo, acute treatment; details: 5.6 mg/kg i.p., anesthetized rats, n=5
Experimental: Effect on acetylcholine release from the rat's cerebral cortex "in vivo"
In this study the Acetylcholine release from the cerebral cortex was investigated in anesthetized rats (n=5) at different times before and after i.p. administration of MR-3066 at a dose of 5.6 mg/kg.

[5] = toxicity after repeated oral administration, 30 days, preliminary study; format: in vivo, male and female Sprague Dawley rat; details: 6 mg/kg oral, 30 consecutive days, rat
Experimental: The toxicity of MR-3066 after repeated administration was evaluated in male and female Sprague Dawley rat after oral administration of the drug (6 mg/kg) for 30 consecutive days.

[6] = test system: retention of passive avoidance response; assay: learning behavior in normal mice (passive avoidance response); format: in vivo, male mice; details: n=20
Experimental: Male mice (body weight ca 20 grams) were used. The test apparatus was a box with a dark compartment and an illuminated one.
The animal was placed in the illuminated compartment, foot-shock was given immediately after the mouse moved in the dark compartement (acquisition trial).
MR-3066 was intraperitoneally administered immediately after the acquisition trial.
The test trial was carried out 24 h following the acquisition trial and the latency time to enter the dark compartment was recorded.
Anti-amnesic activity was calculated according to the following formula:
of control = (the mean latency time of test compound treated mice/the mea
latency time of vehicle treated mice) 100.

[7] = properties stated in the general summary; format: in vivo; details: general statement
[8] = test system: scopolamine-induced amnesia; assay: scopolamine-induced amnesia (passive avoidance); format: in vivo, mice; details: for minimal effective dose: Mus musculus, ip, read-out: Active dose (significantly prolonged the latency)
Experimental: Test apparatus, mice and passive avoidance training (acquisition trial) were as described in the previous sections (4.2-4.3). The compounds were intraperitoneally administered 30 min. before the acquisition trial.
Amnesia was induced by scolopolamine (1 mg/kg s.c.) given 20 min. prior to the acquisition trial; the test trial was performed after 24 hours.
The animals were put in the illuminated compartment and latency time to enter the dark compartment was recorded.
(§3) Anti-amnesic activity was calculated according to the following formula.
(§4) % of control = (the mean latency time of test compound treated mice/the
(§5) mean latency time of vehicle treated mice) × 100.

[9] = test system: electroconvulsive shock (ECS) induced amnesia; assay: electroconvulsive shock (ECS) induced amnesia (passive avoidance); format: in vivo, male mice; details: n=20; for minimal effective dose: Mus musculus, ip, read-out: Active dose (significantly prolonged the latency)
Experimental: Male mice (body weight 23-26 grams) were used.
Test apparatus and passive avoidance training (acquisition trial) were as described in the previous section.
Immediately after acquisition trial, amnesia was induced by electroconsulsive shock (ECS).
Test compounds were administered intraperitoneally soon afterwards the exposure to ECS.
The test trial was performed 24 h after the acquisition trial: the animals were put in the illuminated compartment an the latency time to enter the unlighted compartment was recorded
as §3, §4, §5

[10] = test system: transcallosal evoked potential from the opposite side cerebral cortex; assay: transcallosal evoked potential; format: in vivo, urethane anesthetized rats; details: 0.1 mg/kg i.v., rats
Experimental: as §1, §2

[11] = test system: spontaneous EEG (motor cortex, hippocampus, nucleus amygdalae); assay: spontaneous EEG; format: in vivo; details: 0.1 mg/kg i.v., rabbits
Description: Electrodes were chronically implanted in the motor cortex, the hippocampus and the nucleus amygdalae of rabbits (n=4).
The effects of compounds on spontaneous EEG were studied in the animals.

[12] = ECS amnesia, 1 mg/kg i.p., MR-3066 ** P < 0.01 vs control
[13] = ECS amnesia, 2,5 mg/kg i.p., MR-3066 * P < 0.05, THA ** P < 0.01 vs control

NCC(=O)Nc1ccncc1 [MR-3066, glycyl-p-amino-pyridine monoacetate]
convulsant activity versus 4-aminopyridine [1]: less convulsant than 4-aminopyridine | TD50 [1]: 19 mg/kg | acute toxicity versus 4-aminopyridine [2]: toxicity lower than 4-aminopiridine | LD50 [2]: 29 mg/kg | mean blood pressure [3]: raised the mean blood pressure | time of peak of Ach release [4]: 45 ' | toxic phenomena after repeated administration [5]: no toxic phenomenon except for a slight decrease in body weight, increase in the female accompanied by a reduction in food consumption | Mean latency (% of control) ([6]; 1 mg/kg i.p.): 120.5 % of control | Mean latency (% of control) ([6]; 2.5 mg/kg i.p.): 118.8 % of control | Mean latency (% of control) ([6]; 5 mg/kg i.p., ** P < 0.01 vs control): 136.1 % of control | minimal effective dose ([6]; Mus musculus, ip, passive avoidance, normal mice, read-out: Active dose (significantly prolonged the latency)): 5 mg/kg | Parkinson-like effect [7]: without nevertheless showing Parkinson-like effect | minimal effective dose ([8]; scopolamine amnesia): 1 mg/kg | Anti-amnesic activity (% of control) ([8]; scopolamine amnesia, 0,5 mg/kg i.p.): 157,6 % of control | Anti-amnesic activity (% of control) ([8]; scopolamine amnesia, 1 mg/kg i.p., ** P < 0.01 vs controls): 188,1 % of control | Anti-amnesic activity (% of control) ([8]; scopolamine amnesia, 5 mg/kg i.p.): 159,5 % of control | Anti-amnesic activity (% of control) ([8]; scopolamine amnesia, 2,5 mg/kg i.p.): 145,2 % of control | Anti-amnesic activity (% of control) ([9]; ECS amnesia, 0,1 mg/kg i.p.): 148,2 % of control | Anti-amnesic activity (% of control) ([9]; ECS amnesia, 0,5 mg/kg i.p.): 121,6 % of control | Anti-amnesic activity (% of control) ([9]; ECS amnesia, 0,25 mg/kg i.p.): 147,8 % of control | Anti-amnesic activity (% of control) [9, 12]: 189,6 % of control | Anti-amnesic activity (% of control) ([9]; ECS amnesia, 5 mg/kg i.p.): 148 % of control | Anti-amnesic activity (% of control) [9, 13]: 165,5 % of control

Nc1c2c(nc3ccccc13)CCCC2 [THA]
Anti-amnesic activity (% of control) ([9]; ECS amnesia, 0,5 mg/kg i.p.): 72,2 % of control | Anti-amnesic activity (% of control) [9, 12]: 114,4 % of control | Anti-amnesic activity (% of control) [9, 13]: 184,5 % of control | Active dose (significantly prolonged the latency) ([9]; ECS amnesia): 2.5 mg/kg i.p. | minimal effective dose ([9]; ECS amnesia): 2.5 mg/kg

Nc1ccncc1 [4-aminopyridine, reference compound]
TD50 [1]: 5 mg/kg | LD50 [2]: 12 mg/kg

CNC(=O)Oc1ccc2c(c1)[C@]1(C)CCN(C)[C@@H]1N2C [Physostigmine]
mean blood pressure [3]: raised the mean blood pressure | mean blood pressure effect versus MR-3066 ([3]; physostigmine 0.1 mg/kg i.v. vs MR-3066 2 mg/kg i.v.): much more marked than MR-3066 | amplitude of negative wave of transcallosal evoked potential [10]: increased the amplitude of negative wave | onset of the EEG effects [11]: immediately after the administration | minimal effective dose ([8]; scopolamine amnesia): 0.1 mg/kg | Active dose (significantly prolonged the latency) ([8]; scopolamine amnesia): 0,1 mg/kg i.p. | Anti-amnesic activity (% of control) ([8]; scopolamine amnesia, 0,1 mg/kg i.p., * P < 0.05): 155,5 % of control | Anti-amnesic activity (% of control) ([8]; scopolamine amnesia, 0,05 mg/kg i.p.): 134,5 % of control | Anti-amnesic activity (% of control) ([8]; scopolamine amnesia, 0,025 mg/kg i.p.): 119,5 % of control | Anti-amnesic activity (% of control) ([9]; ECS amnesia, 0,05 mg/kg i.p., * P < 0.05): 165,6 % of control | Anti-amnesic activity (% of control) ([9]; ECS amnesia, 0,025 mg/kg i.p., * P < 0.05): 172,9 % of control | Anti-amnesic activity (% of control) ([9]; ECS amnesia, physostigmine 0,1 mg/kg i.p.): 148 % of control | minimal effective dose ([9]; ECS amnesia): 0.025 to 0.05 mg/kg
